Reference: US4330553A, “7-Oxo-PGI2 -derivatives and process for the preparation thereof and pharmaceutical compositions containing same” (Chinoin Gyogyszer es Vegyeszeti Termekek Gyara R.T., priority 1979, dated 1982)
Values after ≈ are worked out from the molar mass of the structure shown. Counter-ions that a name gives are not always drawn. Like-named read-outs stand apart in the source and are kept apart here.

Legend:
thrombocytes = test: Thrombocyte aggregation inhibiting activity in human plasma enriched with thrombocytes (aggregation induced with ADP or collagen); type: cell-based
Text: ID50 concentrations in case of aggregation generated with ADP and collagen resp. in plasma enriched with thrombocytes (PRB) isolated from human blood are as disclosed hereinbelow. As a comparison ID50 concentration values obtained with PGI2 sodium salt under the same test conditions are given.

[1] = acidic or neutral medium; decomposes to 6-keto-PGF1α; cited from earlier work
[2] = aggregation induced with ADP, read-out: ID50, thrombocyte aggregation inhibiting activity, ADP
[3] = aggregation induced with collagen, read-out: ID50, thrombocyte aggregation inhibiting activity, collagen

| Structure (SMILES) | IC50 (thrombocytes; [2]) [µg/mL] | IC50 (thrombocytes; [3]) [µg/mL] | stability of PGI2 [1] |
| --- | --- | --- | --- |
| CCCCC[C@H](O)/C=C/[C@@H]1[C@H]2C(=O)/C(=C/CCCC(=O)OC)O[C@H]2C[C@H]1O [7-Oxo-PGI2-methyl ester, 7-Oxo-PGI2-methylester] | 0.1 to 0.2 (≈ 0.263 to 0.526 µM) | 0.05 (≈ 0.131 µM) | – |
| CCCCC[C@H](O)/C=C/[C@@H]1[C@H]2C/C(=C/CCCC(=O)O)O[C@H]2C[C@H]1O [PGI2] | – | – | immediately decomposes |
| CCCCC[C@H](O)/C=C/[C@@H]1[C@H]2C(=O)/C(=C/CCCC(=O)O)O[C@H]2C[C@H]1O [Sodium salt of 7-oxo-PGI2] | 0.015 | 0.08 | – |
| CCCCC[C@H](O)/C=C/[C@@H]1[C@H]2C/C(=C/CCCC(=O)O)O[C@H]2C[C@H]1O [Sodium salt of PGI2, reference compound] | 0.001 to 0.002 | 0.001 to 0.002 | – |
